In patent US20090221540A1, “Method of Treating An Acute Vascular Disorder” (PANTARHEI BIOSCIENCE B.V., priority 2006, published 2009):
Like-named read-outs stand apart in the source and are kept apart here.

Key:
[1] = test system: coronary and cerebral arteries; conditions: in vitro; cited from earlier work
[2] = test system: erectile dysfunction primarily due to vascular causes; assay: clinical trial of on demand oral estetrol versus placebo in erectile dysfunction (SFQ); assay type: in vivo, human; conditions: 100 mg per dose
Experimental: As a novel method single dose, on demand oral estetrol administration is tested to treat erectile dysfunction and compared to placebo treatment. A clinical trial is performed in 20 subjects, experiencing erectile dysfunction that is primarily due to vascular causes and in whom intracavernous injection of either papaverine or phentolamine has been previously proven successful in restoring erectile function. Ten subjects receive estetrol medication (100 mg per dose) and 10 subjects receive placebo medication in this outclinic study. Subjects with mild, moderate as well as severe symptoms of erectile dysfunction are instructed on the use of investigational drug medication, which is preferentially being taken 15 minutes to 2 hours before sexual activity. At the start of the trial, subjects are asked to fill out a baseline Sexual Functioning Questionnaire (SFQ). The SFQ is used as the primary endpoint, since this is a self-administered questionnaire and designed to measure changes in sexual function (Smith et al., 2002, British J. Psych., 181:49-55). It asks detailed questions about libido, physical arousal (erection), masturbation, orgasm and ejaculation. It is designed such that higher scores indicate greater dysfunction. Typically total normal controls scores are less than 14 and sexually disfunctioning patients show total scores of more than 18 (Smith et al., 2002, British J. Psych., 181:49-55). […] At the end of the study period at 4 weeks, subject's responses to SFQ survey questions are compared to SFQ responses at baseline. For separate SFQ variables, a comparison is made of those subjects who initially show a bad baseline score. The results are then pooled and expressed as the percentage of subjects with improvement.

[3] = test system: angina pectoris induced by coronary artery disease; assay: clinical trial of on demand oral estetrol versus placebo in angina pectoris; assay type: in vivo, human; conditions: 100 mg per dose
Experimental: A clinical trial is conducted with single dose, on demand oral estetrol administration of 100 mg in subjects suffering from documented angina pectoris and is compared to placebo treatment. Additionally, patients in this trial are offered to use their standard on demand medication, e.g. nitroglycerin. Hundred patients, males and females, with a diagnosis of angina pectoris induced by coronary artery disease, substantiated by positive dynamic tests of myocardial ischaemia, participate in the clinical trial. Patients are selected according to the following inclusion (I) and exclusion (E) criteria: Patients with clear angina pectoris diagnosis (I), patients having chest pain attacks more than two times a week (I). Patients with active myocardial infarct or other cardiopulmonary heart disease, such as severe psychoneurosis, menopausal syndrome and chest pain caused by cervical spondylopathy (E), patients of angina pectoris combined with hypertension (bloodpressure >24/14.87 Kpa) (E), patients of severe cardiopulmonary function deficiency, severe arrhythmia, abnormal liver and renal function and/or hematopoietic disease (E), breast-feeding women and patients with a known history of allergic disease (E), patients younger than 18 or older than 70 (E).
The diagnostic standard for angina pectoris severity is used to describe baseline patient characteristics and subsequently to monitor treatment efficacy (see below).
Low-grade: Typical attack of angina pectoris, which usually lasts a few minutes and occurs 1-3 times a day. The attack is not severe, but the patient sometimes needs to take nitroglycerin. Mid-grade: Angina attack occurs more than 3 times everyday and lasts several to ten minutes every time. The pain is more severe than that of the low-grade attack and the patient generally needs sublingual nitroglycerin. High-grade: Angina attack occurs frequently daily. It lasts longer and more seriously. Routine life is affected. The patient needs to use nitroglycerin frequently.
The diagnostic standard for angina pectoris types is used to describe baseline characteristics and classify patient types.
Exertionally-induced angina pectoris: The transient attack of chest pain is caused typically by exertion or other conditions that increase myocardial oxygen demands. The pain normally disappears rapidly after rest or administration of sublingual nitroglycerin. Spontaneous angina pectoris: The attack of chest pain is not obviously related to increase of myocardial oxygen consumption. Compared with tiredness-induced angina pectoris, the pain lasts longer and is more severe. It can not be easily alleviated by nitroglycerin. Mixed Angina Pectoris: Spontaneous angina pectoris can come with tiredness-induced angina pectoris and is classified as mixed angina pectoris. […]

[4] = single oral dose pharmacokinetics study of estetrol in healthy postmenopausal volunteers; assay type: in vivo, human; conditions: for Cmax: po
Experimental: (§1) A double-blind, randomized, placebo-controlled, single dose study was performed to determine the safety, tolerability and pharmacokinetics of 1, 10 and 100 mg orally administered estetrol in healthy postmenopausal volunteers (menopause defined as ≧12 months amenorrhea or six months amenorrhea with serum FSH levels ≧40 IU/L and serum E2<73 pmol/L), a Body Mass Index of 18-30 kg/m^2, non-smoking, good physical and mental health as judged by the investigator determined by medical history, physical examination, clinical laboratory, vital signs and ECG recording). In each dose group, six subjects received estetrol treatment and two subjects received placebo.
Estetrol and placebo medication was formulated as a solution (propylene glycol/water mixture) and was delivered in separate bottles for each volunteer. Bottles contained 1 mg or 10 mg estetrol per 50 ml for subjects of the groups that received 1 mg or 10 mg estetrol and 100 mg per 200 ml for the group receiving 100 mg estetrol.
(§2) Screening took place within two weeks before investigational drug administration. During and after drug administration, subjects were admitted to a Clinical Pharmacology Unit for approximately 60 hours for intensive safety monitoring. Safety and tolerability were documented by monitoring (serious) adverse events, physical examinations including vital signs, and safety laboratory assessments (hematology, biochemistry, urinalysis). Frequent blood sampling (within the range of 15 minutes to 168 hours) was performed to assess estetrol plasma concentration and pharmacokinetic variables. For this, plasma samples were subjected to liquid-liquid extraction (hexane and diethyl ether) and further subjected to HPLC analysis (Perkin Elmer 200) and tandem mass spectrometry using a PE Sciex 4000 tandem mass spectrometer and APCI interface. With each sample batch, a calibration curve with 6 calibrators was recorded. The calibration curve was calculated using linear regression (correlation coefficient >0.98), which permitted quantification of estetrol plasma concentrations.

[5] = test system: migraine; assay: double-blind, placebo-controlled, multiple attack clinical study of on demand oral estetrol in migraine; assay type: in vivo, human
Experimental: A double-blind, placebo-controlled, multiple attack clinical study is conducted with single dose, on demand oral estetrol administration in adult volunteers (20 females and 20 males) each of whom is seeking migraine relief. Participating subjects show at least a 1-year history of migraine as is defined by International Headache Society criteria (IHS; Headache Classification Committee of the International Headache Society, 1988, Cephalalgia 8 (Suppl. 7):19-28) and report regularly occurring migraines with episodes of pain, photophobia and nausea. Each participant receives blinded medication in two differently labeled bottles, filled with tablets. One bottle comprises tablets that contain 100 mg estetrol, whilst the other bottle contains identical placebo tablets. Participants are allowed to choose from which bottle to orally ingest a tablet at the moment the first symptoms of a migraine attack become apparent. Patients are asked to keep daily records stating the number of migraine attacks, severity of attacks, duration of attacks and use of medication (bottle 1 or bottle 2) for the entire study period of 2 months.

[6] = safety and tolerability of single oral doses of estetrol in healthy postmenopausal volunteers; assay type: in vivo, human
Experimental: as §1, §2

C[C@]12CC[C@@H]3c4ccc(O)cc4CC[C@H]3[C@@H]1CC[C@@H]2O [17β-estradiol]
effect on coronary and cerebral arteries [1]: relaxant effect

C[C@]12CC[C@@H]3c4ccc(O)cc4CC[C@H]3[C@@H]1[C@@H](O)[C@@H](O)[C@@H]2O [estetrol, 1,3,5 (10)-estratrien-3,15α,16α,17β-tetrol]
improvement in satisfaction with overall sex life versus placebo ([2]; SFQ at 4 weeks): more subjects report improvement | percentage of subjects with improvement in the ability to develop and maintain erections versus placebo ([2]; SFQ at 4 weeks versus baseline): higher percentage of subjects that show improvement | tolerability ([2]; on demand oral, 4 weeks): well tolerated | patient-reported effect on angina pectoris symptoms ([3]; on demand oral): relief of angina pectoris symptoms | side effects versus placebo ([3]; on demand oral, 4 weeks): no obvious side effects | use of nitroglycerin versus placebo arm ([3]; on demand oral, 4 weeks): significantly lower than in the placebo arm | improvement of exercise tolerance, ability to extend the duration of walking and quality of life ([3]; versus placebo): statistically more improvement | time of maximum plasma concentrations post-dosing ([4]; 1 mg oral dose group): 15 min | Cmax ([4]; female, human, plasma, 1 mg, 1 mg oral estetrol, read-out: Cmax (median)): 0.52 ng/mL | Cmax ([4]; female, human, plasma, 1 mg, 1 mg oral estetrol, read-out: Cmax (range)): 0.39 to 1.2 ng/mL | Cmax ([4]; female, human, plasma, 10 mg, 10 mg oral estetrol, read-out: Cmax (median)): 9.4 ng/mL | Cmax ([4]; female, human, plasma, 10 mg, 10 mg oral estetrol, read-out: Cmax (range)): 5.4 to 11.6 ng/mL | Cmax ([4]; female, human, plasma, 100 mg, 100 mg oral estetrol, read-out: Cmax (median)): 148 ng/mL | Cmax ([4]; female, human, plasma, 100 mg, 100 mg oral estetrol, read-out: Cmax (range)): 119 to 213 ng/mL | half-life ([4]; female, human, plasma, single oral dose, final elimination phase, read-out: terminal half-life (converted)): ~28 h | gastro-intestinal absorption ([4]; oral dosing 1, 10 and 100 mg): good gastro-intestinal absorption | inter-subject variability of pharmacokinetic profile ([4]; oral dosing 1, 10 and 100 mg): low inter-subject variability | speed of absorption ([4]; single oral dose): extremely fast | start of slow phase of final elimination post-dosing ([4]; single oral dose): approximately 24 hours | headache and relief of migraine symptoms versus baseline analgesic and/or triptan-type medication ([5]; 100 mg estetrol tablets): less headache and more quicker relief of migraine symptoms | side effects directly related to investigational drug ([5]; 100 mg estetrol tablets, on demand, 2 months): No apparent side effects | tablet use by participants, estetrol versus placebo ([5]; free choice between blinded bottles, 2 months): significantly more estetrol containing tablets than placebo tablets | changes in vital signs, haematology, biochemistry or urinalysis ([6]; 1, 10 and 100 mg estetrol): no clinically significant changes | severe or serious adverse events ([6]; 1, 10 and 100 mg estetrol): No severe or serious adverse events | safety and tolerability profile ([6]; single oral doses of 1, 10 and 100 mg): safe and well tolerated
